The numbers were not newly measured in patent US5739336A, “1,3,8-triaza- and 3,8-diaza-1-oxaspiro [4,5] decane derivatives” (Syntex (U.S.A.) Inc., priority 1996, dated 1998), which cites them from elsewhere.

One series deals with rat. The note with it: SI and elevated X-maze models.
In series [1] the test system is human volunteers. The note with it: for slow wave sleep (SWS): human/healthy volunteers.
Series [2] deals with rats.
Series [3] relates to human volunteers.
The subject of series [4] is panic disorder patients or obsessive compulsive disorder patients.
Series [5] concerns human volunteers. This is another data set of the same source.
The subject of series [6] is rats. The source holds these as a separate data set.
Series [7] relates to patients withdrawing from other drugs of abuse.
The test system of another series is migraine. The settings on record: human, in vivo.

In the case of `Clc1cccc(N2CCNCC2)c1` [mCPP, 1-(3-chlorophenyl)piperazine], in the series with rat, the anxiogenic effects result is “produces anxiogenic effects”. For the same compound, in the series on abstaining alcoholics, the craving for alcohol result is recorded as “induces a craving for alcohol”. In addition, in the series on human volunteers [1] (human volunteers), the “rapid eye movement sleep” value was “reduces total sleep time, sleep efficiency, slow wave sleep (SWS) and rapid eye movement sleep”; the sleep efficiency result is reported as “reduces total sleep time, sleep efficiency”; the total sleep time result is recorded as “reduces total sleep time”. For the same compound, the “slow wave sleep (SWS)” value with human volunteers [1] is “reduces total sleep time, sleep efficiency, slow wave sleep (SWS)”. Also, the penile erections result in the series on rats [2] is reported as “produces penile erections in rats”. In the series with human volunteers [3], the anxiety on administration entry is “causes anxiety”. Moreover, the “levels of panic and/or anxiety” value in series [4] is “increases levels of panic and/or anxiety”. Also, the migraine-like headaches entry in the series on human volunteers [5] is listed as “causes migraine-like headaches”.

`Cc1nc2sccn2c(=O)c1CCN1CCC(=C(c2ccc(F)cc2)c2ccc(F)cc2)CC1` [ritanserin]: in the series on rats [6], the alcohol preference result is “reduces alcohol preference”. In addition, in the series on rat models of addiction, the “cocaine and fentanyl preference” value was “reduces both cocaine and fentanyl preference”. For the same compound, in the series on chronic alcoholics, the alcohol intake entry is “decreases alcohol intake”. Moreover, in series [7], the “usefulness in withdrawal from other drugs of abuse” value was “is useful in patients withdrawing from other drugs of abuse”. In addition, in the series with human volunteers [1] (healthy volunteers), the sleep onset latency entry was “reduces sleep onset latency” and the subjective sleep quality result is given as “improves subjective sleep quality”. Moreover, in the series on human volunteers [1], the “slow wave sleep (SWS)” value is reported as “increases SWS”.

Turning to `O=C(c1ccc(F)cc1)C1CCN(CCn2c(=O)[nH]c3ccccc3c2=O)CC1` [ketanserin], the alcohol preference entry in the series on rats [6] is on record as “has no affect on preference for alcohol”. Moreover, the “clinical effectiveness as antimigraine agent” value with migraine is “is not”.
